Laboratory results published in patent US20020169111A1, “Reversal of multidrug resistance in human colon carcinoma cells” (American Cyanamid Comany, priority 1998, published 2002).

Test system: S1-M1-3.2 cells
Conditions: for Toxicity (>20%): compound alone, concentration that causes greater than 20% cell death of S1-M1-3.2 cells; for IC50: read-out: IC50 (μM), resensitizing S1-M1-3.2 cells to mitoxantrone, with 3.2 μM mitoxantrone, 50% cancer cell death
Procedure: One of the first reported molecules with reversing activity was verapamil, a calcium channel blocker. […] Cells were plated into 96-well dishes (100 μl/well) in growth medium supplemented with 5% FBS. […] Reversal agents were tested from 0.1-80 μM (triplicate points per dose). In parallel wells, cells were grown in the presence of the reversal agent alone.
The Difference Score is the difference in the percentage of cells surviving when the drug was given alone minus the percentage of cells surviving when the drug was given along with the antitumor agent.
Cell survival was estimated using the Sulforhodamine (SRB) assay.

SMILES | Toxicity (>20%) [µM] | IC50 [µM]
NCCC[C@@H]1c2[nH]c3ccccc3c2C[C@H]2C(=O)N3CCC[C@H]3C(=O)N12 [Example 29a, (5aS,12R,14aS)-12-(3-aminopropyl)-1,2,3,5a,6,11,12,14a-octahydro-5H,14H-pyrrolo[1″,2″:4′,5′]pyrazino[2′,1′:6,1]pyrido[3,4-b]indole-5,14-dione] | >80 | 20
NCCC[C@H]1c2[nH]c3ccccc3c2C[C@H]2C(=O)N3CCC[C@H]3C(=O)N21 [Example 29b, (5aS,12S,14aS)-12-(3-aminopropyl)-1,2,3,5a,6,11,12,14a-octahydro-5H,14H-pyrrolo[1″,2″:4′,5′]pyrazino[2′,1′:6,1]pyrido[3,4-b]indole-5,14-dione] | >80 | > 80
CC(=O)NCCC[C@H]1c2[nH]c3ccccc3c2C[C@H]2C(=O)N3CCC[C@H]3C(=O)N21 [Example 30, N-{3-[(5aS,12S,14aS)-5,14-dioxo-2,3,5a,6,11,12,14,14a-octahydro-1H,5H-pyrrolo[1″,2″:4′,5′]pyrazino[2′,1′:6,1]pyrido[3,4-b]indol-12-yl]propyl}Acetamide] | >80 | > 80
CCCC(=O)NCCC[C@H]1c2[nH]c3ccccc3c2C[C@H]2C(=O)N3CCC[C@H]3C(=O)N21 [Example 31, N-{3-[(5aS,12S,14aS)-5,14-dioxo-2,3,5a,6,11,12,14,14a-octahydro-1H,5H-pyrrolo[1″,2″:4′,5′]pyrazino[2′,1′:6,1]pyrido[3,4-b]indol-12-yl]propyl}Butanamide] | >80 | 65
O=C(O)CCC(=O)NCCC[C@H]1c2[nH]c3ccccc3c2C[C@H]2C(=O)N3CCC[C@H]3C(=O)N21 [Example 32, 4-({3-[(5aS,12S,14aS)-5,14-dioxo-2,3,5a,6,11,12,14,14a-octahydro-1H,5H-pyrrolo[1″,2″:4′,5′]pyrazino[2′,1′:6,1]pyrido[3,4-b]indol-12-yl]propyl}amino)-4-oxobutanoic acid] | >80 | > 80
O=C(NCCC[C@H]1c2[nH]c3ccccc3c2C[C@H]2C(=O)N3CCC[C@H]3C(=O)N21)[C@@H]1CCCN1 [Example 33, (2S)-N-{3-[(5aS,12S,14aS)-5,14-dioxo-2,3,5a,6,11,12,14,14a-octahydro-1H,5H-pyrrolo[1″,2″:4′,5′]pyrazino[2′,1′:6,1]pyrido[3,4-b]indol-12-yl]propyl}pyrrolidine-2-carboxamide] | >80 | > 80
COc1ccc2c3c(n(CC=C(C)C)c2c1)[C@H](C=C(C)C)N1C(=O)[C@@H]2CCCN2C(=O)[C@@H]1C3 [Example 34] | 2.0 | 1
